Reference: ChEMBL document CHEMBL4507261, “Data for DCP probe A-192621” (2021)

Columns and labels:
Conditions in all cases: Compound concentration 10.0 uM
[1] = target: T1, GABA-A receptor; anion channel (Rattus norvegicus) (UniProt O09028+P15431+P18506+P18508+P19969+P20236+P23574+P23576+P28471+P28473+P30191+P62813+P63079+P63138+Q91ZM7+Q9ES14)
[2] = target: Beta-3 adrenergic receptor (Homo sapiens) (UniProt P13945)
[3] = target: 5-hydroxytryptamine receptor 1D (Homo sapiens) (UniProt P28221)
[4] = target: Alpha-2C adrenergic receptor (Homo sapiens) (UniProt P18825)
Chain of Alpha-2C adrenergic receptor (Homo sapiens) (P18825 whole entry): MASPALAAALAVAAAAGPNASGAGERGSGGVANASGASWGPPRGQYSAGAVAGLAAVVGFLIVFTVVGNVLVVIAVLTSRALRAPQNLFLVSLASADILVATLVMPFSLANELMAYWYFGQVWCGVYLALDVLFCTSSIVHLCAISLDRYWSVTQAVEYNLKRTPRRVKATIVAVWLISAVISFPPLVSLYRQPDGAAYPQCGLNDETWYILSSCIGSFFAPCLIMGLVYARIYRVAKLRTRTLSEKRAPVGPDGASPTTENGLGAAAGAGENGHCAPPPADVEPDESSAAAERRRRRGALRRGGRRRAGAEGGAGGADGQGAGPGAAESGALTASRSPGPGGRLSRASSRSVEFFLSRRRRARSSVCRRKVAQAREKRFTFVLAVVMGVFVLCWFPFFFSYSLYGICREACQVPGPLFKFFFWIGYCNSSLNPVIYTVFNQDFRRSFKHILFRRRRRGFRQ

[5] = target: Muscarinic acetylcholine receptor M3 (Homo sapiens) (UniProt P20309)
Chain of Muscarinic acetylcholine receptor M3 (Homo sapiens) (P20309 whole entry, looked up): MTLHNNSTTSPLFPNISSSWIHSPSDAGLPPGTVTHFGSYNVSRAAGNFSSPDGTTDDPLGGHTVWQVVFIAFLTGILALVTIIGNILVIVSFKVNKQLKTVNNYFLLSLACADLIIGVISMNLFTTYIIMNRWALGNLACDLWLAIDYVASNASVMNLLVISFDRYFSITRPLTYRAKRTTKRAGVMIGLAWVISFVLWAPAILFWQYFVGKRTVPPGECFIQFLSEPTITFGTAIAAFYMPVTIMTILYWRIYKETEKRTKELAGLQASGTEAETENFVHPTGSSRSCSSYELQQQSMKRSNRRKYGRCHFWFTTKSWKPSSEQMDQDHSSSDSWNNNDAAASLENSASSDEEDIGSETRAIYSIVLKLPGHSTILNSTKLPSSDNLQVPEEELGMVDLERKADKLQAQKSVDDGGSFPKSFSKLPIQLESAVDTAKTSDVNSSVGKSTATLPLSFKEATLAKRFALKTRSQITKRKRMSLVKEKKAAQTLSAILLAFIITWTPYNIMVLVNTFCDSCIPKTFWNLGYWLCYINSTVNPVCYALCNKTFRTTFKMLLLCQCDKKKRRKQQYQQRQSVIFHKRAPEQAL

[6] = target: T2, Alpha-2B adrenergic receptor (Homo sapiens) (UniProt P18089)
T2 sequence (whole entry): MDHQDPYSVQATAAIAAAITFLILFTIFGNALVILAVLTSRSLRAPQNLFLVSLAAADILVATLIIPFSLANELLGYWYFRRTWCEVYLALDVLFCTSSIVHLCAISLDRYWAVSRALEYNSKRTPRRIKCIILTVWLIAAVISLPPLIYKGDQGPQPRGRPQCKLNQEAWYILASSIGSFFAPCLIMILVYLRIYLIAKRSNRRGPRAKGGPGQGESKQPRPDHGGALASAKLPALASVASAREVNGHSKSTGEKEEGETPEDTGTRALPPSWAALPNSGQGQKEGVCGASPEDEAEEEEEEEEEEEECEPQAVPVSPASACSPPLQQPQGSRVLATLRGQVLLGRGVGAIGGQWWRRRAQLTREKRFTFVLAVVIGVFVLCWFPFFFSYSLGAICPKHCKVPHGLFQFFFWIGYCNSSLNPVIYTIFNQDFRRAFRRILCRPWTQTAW

[7] = target: T3, Muscarinic acetylcholine receptor M5 (Homo sapiens) (UniProt P08912)
T3 sequence (whole entry): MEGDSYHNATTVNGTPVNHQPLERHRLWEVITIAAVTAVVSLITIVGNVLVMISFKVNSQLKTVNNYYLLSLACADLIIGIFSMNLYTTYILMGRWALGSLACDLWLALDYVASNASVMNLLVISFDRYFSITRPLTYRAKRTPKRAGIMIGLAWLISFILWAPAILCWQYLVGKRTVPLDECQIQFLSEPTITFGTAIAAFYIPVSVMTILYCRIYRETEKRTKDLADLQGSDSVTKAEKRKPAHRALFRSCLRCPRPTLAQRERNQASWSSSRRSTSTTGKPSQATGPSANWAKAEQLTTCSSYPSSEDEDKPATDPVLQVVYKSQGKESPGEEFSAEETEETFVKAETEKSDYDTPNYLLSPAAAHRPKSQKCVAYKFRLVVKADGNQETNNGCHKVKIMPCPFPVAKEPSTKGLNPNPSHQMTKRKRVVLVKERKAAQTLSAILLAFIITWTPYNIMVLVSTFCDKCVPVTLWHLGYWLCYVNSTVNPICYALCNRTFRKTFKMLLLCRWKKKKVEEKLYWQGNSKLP

[8] = target: Histamine H1 receptor (Homo sapiens) (UniProt P35367)
Chain of Histamine H1 receptor (Homo sapiens) (P35367 whole entry): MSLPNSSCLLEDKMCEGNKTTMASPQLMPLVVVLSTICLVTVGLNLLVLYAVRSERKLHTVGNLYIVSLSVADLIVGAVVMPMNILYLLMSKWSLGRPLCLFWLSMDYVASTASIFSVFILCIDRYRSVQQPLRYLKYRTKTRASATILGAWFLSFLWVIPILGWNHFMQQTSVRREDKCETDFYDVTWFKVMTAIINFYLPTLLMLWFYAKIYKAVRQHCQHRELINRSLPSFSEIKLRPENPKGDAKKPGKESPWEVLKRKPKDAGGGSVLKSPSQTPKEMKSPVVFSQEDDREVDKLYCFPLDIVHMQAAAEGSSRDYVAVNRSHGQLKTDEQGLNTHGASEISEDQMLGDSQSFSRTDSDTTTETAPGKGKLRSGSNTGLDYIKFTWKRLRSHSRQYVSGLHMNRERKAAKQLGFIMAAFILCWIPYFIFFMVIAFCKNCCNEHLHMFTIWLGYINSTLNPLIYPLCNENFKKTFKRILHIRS

Rattus norvegicus = species on record: Rattus norvegicus
[9] = target: T1, GABA-A receptor; anion channel (Rattus norvegicus); remark: listed apart in the source
[10] = target: Histamine H2 receptor (Homo sapiens) (UniProt P25021)
Chain of Histamine H2 receptor (Homo sapiens) (P25021 whole entry): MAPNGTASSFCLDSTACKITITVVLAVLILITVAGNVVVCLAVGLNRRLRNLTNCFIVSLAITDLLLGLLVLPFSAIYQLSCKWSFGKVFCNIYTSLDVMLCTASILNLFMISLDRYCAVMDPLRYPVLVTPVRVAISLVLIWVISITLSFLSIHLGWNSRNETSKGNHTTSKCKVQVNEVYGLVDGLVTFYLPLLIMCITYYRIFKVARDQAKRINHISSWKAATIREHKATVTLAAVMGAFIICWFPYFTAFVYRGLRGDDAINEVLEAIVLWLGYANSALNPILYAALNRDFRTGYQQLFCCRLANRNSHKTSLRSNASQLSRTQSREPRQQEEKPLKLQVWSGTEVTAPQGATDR

[11] = target: T4, Alpha-1B adrenergic receptor (Homo sapiens) (UniProt P35368)
T4 sequence (whole entry): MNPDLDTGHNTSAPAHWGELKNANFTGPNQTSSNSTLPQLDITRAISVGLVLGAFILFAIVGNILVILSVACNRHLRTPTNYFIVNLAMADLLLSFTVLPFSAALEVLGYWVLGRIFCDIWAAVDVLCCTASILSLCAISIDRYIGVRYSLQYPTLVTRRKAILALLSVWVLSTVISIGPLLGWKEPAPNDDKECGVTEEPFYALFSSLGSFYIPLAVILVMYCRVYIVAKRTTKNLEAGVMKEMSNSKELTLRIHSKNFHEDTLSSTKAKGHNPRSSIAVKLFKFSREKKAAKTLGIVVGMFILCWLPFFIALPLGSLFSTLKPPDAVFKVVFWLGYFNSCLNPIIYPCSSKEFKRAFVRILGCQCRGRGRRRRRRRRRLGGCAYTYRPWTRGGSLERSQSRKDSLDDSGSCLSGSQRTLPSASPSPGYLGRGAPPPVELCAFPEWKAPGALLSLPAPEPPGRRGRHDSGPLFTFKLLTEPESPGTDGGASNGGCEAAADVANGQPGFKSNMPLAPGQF

[12] = target: T5, 5-hydroxytryptamine receptor 3A (Homo sapiens) (UniProt P46098)
T5 sequence (whole entry): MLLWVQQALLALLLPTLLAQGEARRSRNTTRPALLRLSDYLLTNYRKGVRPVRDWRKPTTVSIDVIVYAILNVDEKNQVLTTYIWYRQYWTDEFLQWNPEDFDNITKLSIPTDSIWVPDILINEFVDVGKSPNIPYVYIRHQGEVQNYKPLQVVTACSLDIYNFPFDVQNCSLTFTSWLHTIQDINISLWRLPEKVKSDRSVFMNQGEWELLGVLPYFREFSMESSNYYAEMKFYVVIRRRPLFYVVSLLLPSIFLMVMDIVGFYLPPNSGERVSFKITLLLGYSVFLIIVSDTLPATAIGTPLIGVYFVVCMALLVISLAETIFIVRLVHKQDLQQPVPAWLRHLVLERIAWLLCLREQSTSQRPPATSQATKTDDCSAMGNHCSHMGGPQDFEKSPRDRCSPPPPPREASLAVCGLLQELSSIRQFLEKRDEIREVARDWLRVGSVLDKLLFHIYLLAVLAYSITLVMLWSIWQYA

[13] = target: Alpha-1D adrenergic receptor (Homo sapiens) (UniProt P25100)
Chain of Alpha-1D adrenergic receptor (Homo sapiens) (P25100 whole entry): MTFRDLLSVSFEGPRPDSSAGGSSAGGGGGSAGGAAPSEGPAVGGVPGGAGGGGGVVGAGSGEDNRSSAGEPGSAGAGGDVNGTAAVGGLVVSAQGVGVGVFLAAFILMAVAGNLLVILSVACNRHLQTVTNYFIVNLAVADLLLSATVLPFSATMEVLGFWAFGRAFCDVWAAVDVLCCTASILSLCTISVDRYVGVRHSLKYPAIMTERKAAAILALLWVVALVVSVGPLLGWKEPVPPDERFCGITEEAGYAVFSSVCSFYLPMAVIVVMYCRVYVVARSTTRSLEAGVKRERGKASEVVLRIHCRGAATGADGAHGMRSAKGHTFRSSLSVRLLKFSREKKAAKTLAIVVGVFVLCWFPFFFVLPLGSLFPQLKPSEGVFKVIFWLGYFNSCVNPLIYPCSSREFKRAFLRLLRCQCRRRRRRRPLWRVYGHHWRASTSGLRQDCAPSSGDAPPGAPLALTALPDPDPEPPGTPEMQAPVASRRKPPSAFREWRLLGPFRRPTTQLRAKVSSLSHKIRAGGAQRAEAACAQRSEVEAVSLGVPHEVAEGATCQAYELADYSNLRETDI

[14] = target: D(1A) dopamine receptor (Homo sapiens) (UniProt P21728)
Chain of D(1A) dopamine receptor (Homo sapiens) (P21728 whole entry): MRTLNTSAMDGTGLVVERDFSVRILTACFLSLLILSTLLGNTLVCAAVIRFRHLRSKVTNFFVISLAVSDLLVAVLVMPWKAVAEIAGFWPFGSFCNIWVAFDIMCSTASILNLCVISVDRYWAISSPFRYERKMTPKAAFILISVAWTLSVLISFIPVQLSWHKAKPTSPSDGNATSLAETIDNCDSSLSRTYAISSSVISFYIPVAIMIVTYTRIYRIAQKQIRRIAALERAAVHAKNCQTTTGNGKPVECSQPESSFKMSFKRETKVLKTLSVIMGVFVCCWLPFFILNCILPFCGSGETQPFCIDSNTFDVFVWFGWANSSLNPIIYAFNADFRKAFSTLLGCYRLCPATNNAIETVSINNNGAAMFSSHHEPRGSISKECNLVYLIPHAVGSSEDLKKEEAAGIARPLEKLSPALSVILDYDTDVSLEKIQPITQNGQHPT

[15] = target: D(3) dopamine receptor (Homo sapiens) (UniProt P35462)
Chain of D(3) dopamine receptor (Homo sapiens) (P35462 whole entry): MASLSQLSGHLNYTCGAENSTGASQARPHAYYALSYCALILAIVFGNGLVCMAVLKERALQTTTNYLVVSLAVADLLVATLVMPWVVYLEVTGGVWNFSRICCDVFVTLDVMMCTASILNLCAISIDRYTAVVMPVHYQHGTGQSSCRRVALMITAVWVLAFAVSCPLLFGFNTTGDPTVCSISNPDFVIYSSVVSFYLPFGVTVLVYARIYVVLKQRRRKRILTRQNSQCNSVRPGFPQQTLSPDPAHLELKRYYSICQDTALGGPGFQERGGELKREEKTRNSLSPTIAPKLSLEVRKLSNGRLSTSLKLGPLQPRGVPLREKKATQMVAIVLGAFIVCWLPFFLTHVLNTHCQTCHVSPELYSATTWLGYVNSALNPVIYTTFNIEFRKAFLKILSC

Measured: inhibition

Chain of Beta-3 adrenergic receptor (Homo sapiens) (P13945 whole entry, looked up): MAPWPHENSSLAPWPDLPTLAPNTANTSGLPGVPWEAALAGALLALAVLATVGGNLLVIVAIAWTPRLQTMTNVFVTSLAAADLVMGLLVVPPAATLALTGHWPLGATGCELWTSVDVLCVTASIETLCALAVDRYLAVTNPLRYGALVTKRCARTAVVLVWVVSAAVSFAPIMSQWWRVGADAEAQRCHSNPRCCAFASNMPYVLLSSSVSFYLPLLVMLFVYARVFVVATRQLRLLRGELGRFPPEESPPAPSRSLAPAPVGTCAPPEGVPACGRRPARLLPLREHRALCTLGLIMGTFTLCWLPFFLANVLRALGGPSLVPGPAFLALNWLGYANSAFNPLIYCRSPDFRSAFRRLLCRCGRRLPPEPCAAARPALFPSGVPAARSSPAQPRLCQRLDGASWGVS
Chain of 5-hydroxytryptamine receptor 1D (Homo sapiens) (P28221 whole entry): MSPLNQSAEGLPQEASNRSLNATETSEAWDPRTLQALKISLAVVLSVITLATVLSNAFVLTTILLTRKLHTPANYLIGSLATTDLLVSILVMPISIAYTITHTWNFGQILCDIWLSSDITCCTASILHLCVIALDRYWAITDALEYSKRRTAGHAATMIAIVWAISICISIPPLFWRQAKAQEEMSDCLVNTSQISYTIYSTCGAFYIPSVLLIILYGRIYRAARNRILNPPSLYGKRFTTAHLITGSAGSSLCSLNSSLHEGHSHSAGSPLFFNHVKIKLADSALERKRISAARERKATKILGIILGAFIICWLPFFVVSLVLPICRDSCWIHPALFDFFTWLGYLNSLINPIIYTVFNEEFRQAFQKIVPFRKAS

CCCOc1ccc([C@H]2[C@H](C(=O)O)[C@@H](c3ccc4c(c3)OCO4)CN2CC(=O)Nc2c(CC)cccc2CC)cc1 [A-192621]
inactive: [1] 19.6% | [2] 13.3% | [3] -3.09% | [4] 0.5% | [5] -5.06% | [6] 10.4% | [7] 27.3% | [8] 36% | Rattus norvegicus 16.5% | [9] 5.57% | [10] 5.77% | [11] -2.22% | [12] -5.22% | [13] -1.79% | [14] 17.3% | [15] -5.43%
